From paper PMC8113213, “Physiologically based kinetic modelling based prediction of in vivo rat and human acetylcholinesterase (AChE) inhibition upon exposure to diazinon” (Archives of Toxicology, 2021)
Like-named read-outs stand apart in the source and are kept apart here. Marks after values point to notes of the source that are not given here.

Experiments:
rat RBC AChE = molecular target: T1, rat RBC AChE (Rattus norvegicus, UniProt P37136); test: In vitro AChE inhibition assay (Ellman) with extracted rat RBC AChE; assay type: biochemical
T1 construct: the membrane fraction (containing AChE) was sedimented by centrifugation at 20,000g for 40 min; tissue BioIVT; host or cells: rat red blood cell membranes (from whole blood)
Protocol: (§1) However, since recombinant rat AChE was not commercially available, extracted rat RBC AChE was used. […] The concentration of DTNB was calculated based on the concentration ratio (ATC/DTNB) of 2 (Stern et al. [2014]). […] To initiate the inhibition reaction, 1 µl rhAChE or rat AChE (final concentration 0.6 mU/ml) was added to the incubation. The total incubation volume was 50 µl. After 15 min incubation at 37℃, 150 µl reaction reagents (mixture of ATC at a final concentration of 150 µM and DTNB at a final concentration of 75 µM) were added into each well. The final total volume of each well was 200 µl. Subsequently, the 96-well plate was measured continuously for 10 min at absorbance 412 nm at 37℃ to quantify the remaining AChE activity.
(§2) The rhAChE and rat AChE activity were expressed as the remaining AChE activity relative to solvent control (100% activity) and positive control (0% activity) based on Eq. (2):2 AChEactivity\%=A412t10-t0testcompound-A412t10-t0positivecontrol/A412t10-t0solventcontrol-A412t10-t0positivecontrol×100\% , where the A412(t10 − t0)test compound is the change in the absorbance at A412 nm between 0 and 10 min for the test compound, the A412(t10 − t0)positive control is the change in the absorbance at A412 nm between 0 and 10 min for the CPO sample, and the A412(t10 − t0)solvent control is the change in the absorbance at A412nm between 0 and 10 min for the 0.2% ethanol sample.

[1] = molecular target: T2, recombinant human AChE (rhAChE) (Homo sapiens, UniProt P22303); test: biochemical
T2 construct: purchased Sigma-Aldrich Co
Protocol: as §1, §2

RBC AChE [2] = test: TEF-coded PBK model-based reverse dosimetry, predicted in vivo RBC AChE inhibition, rat; conditions: for Predicted BMDL10 for rat pups: adult rat predicted BMDL10 corrected by factor 2 (Padilla et al. 2004)
Description: The PBK model for DZN was developed based on the model from Poet et al. ([2004]) with some modifications for both rat and human. The model contains a submodel for the metabolite DZO and was defined to include compartments for rapidly perfused tissue, slowly perfused tissue, liver, fat and blood for both the parent compound DZN and its metabolite DZO. The model also contains a compartment to describe the urinary elimination of the metabolites IMHP and DAP (sum of DEP and DETP). In the currently developed model, oral exposure was included since we aimed at defining a POD for risk assessment of exposure via food and drinking water, and intravenous (IV) exposure was included for model evaluation. The fractional absorption (fa) was set equal to literature reported values, being 0.8 in rat (Poet et al. [2004]) and 0.66 in human (Garfitt et al. [2002]) and applied to the overall dose. The absorption of DZN from the stomach into the liver was described using a two-compartment gastrointestinal tract model as reported by Poet et al. ([2004]), with a first-order rate constant for absorption of DZN from the stomach into the liver (KaS) of 0.1 /h for rat and 0.32/h for human (Poet et al. [2004]), a first-order rate constant for transfer of DZN from the stomach into the intestine (KsI) of 0.48/h for both rat and human, a first-order rate constant for absorption DZN from the intestine into the liver (KaI) of 0.59/h for both rat and human, (Poet et al. [2004]), and Ke values for the elimination of IMHP or DAP (sum of DEP and DETP) into the urine amounting to Ke IMHP = 0.29/h, Ke DEP = 0.29 /h and Ke DETP = 0.29/h for rat (Poet et al. [2004]), and Ke IMHP = 12/h, Ke DEP = 12 /h and Ke DETP = 12/h for human (Garfitt et al. [2002]; Poet et al. [2004]).
The physiological parameters for rat and human were obtained from Brown et al. ([1997]) as well as Gearhart et al. ([1990]), and are summarised in Table 1. […] The kinetic parameters for biotransformation of DZN in rat and human were obtained by conducting in vitro liver microsomal/plasma incubations as described in the section “In vitro metabolic incubations for deriving kinetic parameters”. […] The first-pass metabolism of DZN by the intestine was not taken into account in the current model because the metabolic conversion in the intestine derived from the conversion in incubations with intestinal microsomes upon scaling to the whole organ, appeared less than 5% of that obtained in a similar way for the liver (data not shown). […] The Km values determined in vitro were assumed to be equal to in vivo Km values. […]

RBC AChE [3] = test: TEF-coded PBK model-based reverse dosimetry, predicted in vivo RBC AChE inhibition, human
Description: The PBK model for DZN was developed based on the model from Poet et al. ([2004]) with some modifications for both rat and human. The model contains a submodel for the metabolite DZO and was defined to include compartments for rapidly perfused tissue, slowly perfused tissue, liver, fat and blood for both the parent compound DZN and its metabolite DZO. The model also contains a compartment to describe the urinary elimination of the metabolites IMHP and DAP (sum of DEP and DETP). In the currently developed model, oral exposure was included since we aimed at defining a POD for risk assessment of exposure via food and drinking water, and intravenous (IV) exposure was included for model evaluation. The fractional absorption (fa) was set equal to literature reported values, being 0.8 in rat (Poet et al. [2004]) and 0.66 in human (Garfitt et al. [2002]) and applied to the overall dose. […]
The physiological parameters for rat and human were obtained from Brown et al. ([1997]) as well as Gearhart et al. ([1990]), and are summarised in Table 1. […] The Km values determined in vitro were assumed to be equal to in vivo Km values. […]

RBC AChE [4] = conditions: ref USEPA 2016, cited from earlier work; for Reported BMDL10 from EPA (pups): RBC AChE inhibition in female rat pups (PND11)
brain AChE = conditions: cited from earlier work; for inhibition of brain AChE: ref Padilla et al. 2004

T1 sequence (P37136 other isoform, or with tags, fused parts or gaps): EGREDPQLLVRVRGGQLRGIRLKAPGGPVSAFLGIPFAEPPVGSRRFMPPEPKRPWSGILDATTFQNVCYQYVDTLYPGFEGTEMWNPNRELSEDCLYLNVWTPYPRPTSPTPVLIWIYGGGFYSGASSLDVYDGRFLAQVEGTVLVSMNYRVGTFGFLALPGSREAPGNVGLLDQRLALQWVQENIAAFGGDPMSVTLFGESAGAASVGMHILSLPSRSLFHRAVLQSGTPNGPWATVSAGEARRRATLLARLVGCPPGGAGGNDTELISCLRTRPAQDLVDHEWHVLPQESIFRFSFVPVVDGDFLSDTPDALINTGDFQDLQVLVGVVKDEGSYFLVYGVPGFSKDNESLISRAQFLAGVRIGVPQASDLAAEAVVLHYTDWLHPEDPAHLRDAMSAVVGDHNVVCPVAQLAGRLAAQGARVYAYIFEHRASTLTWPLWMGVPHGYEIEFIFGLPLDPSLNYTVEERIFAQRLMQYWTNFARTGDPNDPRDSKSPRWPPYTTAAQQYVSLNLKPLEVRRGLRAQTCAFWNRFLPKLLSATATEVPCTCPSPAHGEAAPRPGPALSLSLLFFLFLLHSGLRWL
T2 sequence (P22303 32-614): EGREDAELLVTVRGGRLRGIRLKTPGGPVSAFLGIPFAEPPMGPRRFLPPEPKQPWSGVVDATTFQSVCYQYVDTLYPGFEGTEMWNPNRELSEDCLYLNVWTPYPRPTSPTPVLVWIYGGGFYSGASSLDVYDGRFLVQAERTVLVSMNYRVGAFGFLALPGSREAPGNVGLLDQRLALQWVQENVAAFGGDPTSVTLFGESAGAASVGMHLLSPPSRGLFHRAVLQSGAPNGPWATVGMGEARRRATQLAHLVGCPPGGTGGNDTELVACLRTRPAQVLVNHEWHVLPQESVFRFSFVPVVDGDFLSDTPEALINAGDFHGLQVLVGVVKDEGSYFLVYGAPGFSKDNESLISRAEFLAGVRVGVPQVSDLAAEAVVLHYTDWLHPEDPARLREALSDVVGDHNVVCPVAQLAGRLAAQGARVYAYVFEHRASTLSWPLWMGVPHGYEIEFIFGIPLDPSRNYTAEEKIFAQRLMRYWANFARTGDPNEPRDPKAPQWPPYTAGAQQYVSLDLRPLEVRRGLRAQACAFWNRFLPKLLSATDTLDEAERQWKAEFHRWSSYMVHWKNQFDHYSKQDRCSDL

CCOP(=S)(OCC)Oc1cc(C)nc(C(C)C)n1 [DZN, O,O-diethyl O-2-isopropyl-6-methylpyrimidin-4-yl phosphorothioate]
IC50 (rat RBC AChE; rat RBC AChE, 15 min incubation at 37℃): 14.7 µM
toxic equivalency factor (TEF) (rat RBC AChE; rat, IC50 DZO/IC50 DZN, TEF of DZO set at 1.0): 0.00351
lower AChE inhibitory potency of DZN than of DZO [1]: around 300 fold
IC50 ([1]; rhAChE, 15 min incubation at 37℃, read-out: IC50 for inhibition of AChE activity): 14.3 µM
corrected POD (rat pups) higher than POD used by the EPA (RBC AChE [2]): 2.1 fold
predicted rat BMDL10 higher than reported BMDL10 for inhibition of RBC AChE (RBC AChE [2]): 2.6 fold
Predicted BMDL10 for rat pups (RBC AChE [2]): 6.3 mg/kg bw
Predicted BMDL10 for rat pups (RBC AChE [2]; listed as Diazinon): 6.3^a mg/kg bw
predicted BMDL10 for human lower than that for rat (RBC AChE [3]): 6 fold
Reported BMDL10 from EPA (pups) (RBC AChE [4]): 3 mg/kg bw
Reported BMDL10 from EPA (pups) (RBC AChE [4]; listed as Diazinon): 3.0 mg/kg bw
BMDL10 for inhibition of RBC AChE (RBC AChE [4]; male adult rats, oral DZN): 4.804 mg/kg bw/day
Reported BMDL10 from EPA (adult rat) (RBC AChE [4]): 4.8 mg/kg bw
inhibition of brain AChE (brain AChE; adult rats, oral dose of 75 mg/kg bw): 38%
BMDL10 for inhibition of brain AChE (brain AChE; male adult rats, oral DZN, ref USEPA 2016): 12.175 mg/kg bw/day
inhibition of brain AChE (brain AChE; pups at postnatal day 17, oral dose of 75 mg/kg bw): 75%
